# Test system: brain, spinal cord, and DRG of the NHPs
# Assay: NGS fold enrichment of synthetic library (passage 3) in NHPs, first cross-species screen
# Type: in vivo, cynomolgus macaques (Macaca fascicularis)
# Conditions: synthetic library passage 3, intravenous, RNA NGS, brain of NHPs, relative to wild-type AAV9
# In short: (§1)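 Synthetic capsid library (passage 3) was given intravenously […] to NHPs aged 2-4 years and to BALB/c and C57Bl/6 mice (n=3 each, 6-8 weeks). After about 28 days in vivo, tissue RNA was RT-PCR amplified and NGS-sequenced; values are fold enrichment per variant relative to wild-type AAV9.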
row,Sequence,Fold enrichment over AAV9 in the brain of NHPs
1,GVHDMRVSGQNQQT,1.032 fold
2,GSGQNQQHVSSPRT,2.176 fold
3,GSGERLHLTQNQQT,1.885 fold
4,GSGQNQQTALEKSL,1.092 fold
5,GFAHQASSGQNQQT,1.587 fold
6,GSGQQLSITPNQQT,1.979 fold
7,GSGQSYQRDHNQQT,1.859 fold
8,GSGQTVVRIANQQT,1.046 fold
9,GNSMERTSGQNQQT,2.221 fold
10,GSGQNQYSQSSMQT,1.494 fold
11,GMTSHSVSGQNQQT,1.850 fold
12,GSGGLDTRGQNQQT,2.139 fold
13,GSGQNQQVIQGSNT,2.521 fold
14,GSGQNAHAKEGQQT,1.108 fold
15,GSGFNQRSEQNQQT,2.121 fold
16,GALTVMQSGQNQQT,2.381 fold
17,GSVLHSHAAQNQQT,4.150 fold
18,GQIVQNPSGQNQQT,3.133 fold
19,GSGMPVILGQNQQT,2.005 fold
20,GSGLRTMTTQNQQT,1.900 fold
21,GSGPILGQLQNQQT,2.097 fold
22,GSGDLVVSTQNQQT,3.874 fold

# Same assay, conditions: synthetic library passage 3, intravenous, RNA NGS, spinal cord of NHPs, relative to wild-type AAV9
row,Sequence,Fold enrichment over AAV9 in the spinal cord of NHPs
1,GVHDMRVSGQNQQT,8.083 fold
2,GSGQNQQHVSSPRT,1.279 fold
3,GSGERLHLTQNQQT,1.456 fold
4,GSGQNQQTALEKSL,0.000 fold
5,GFAHQASSGQNQQT,1.852 fold
6,GSGQQLSITPNQQT,10.280 fold
7,GSGQSYQRDHNQQT,8.013 fold
8,GSGQTVVRIANQQT,4.156 fold
9,GNSMERTSGQNQQT,4.177 fold
10,GSGQNQYSQSSMQT,4.278 fold
11,GMTSHSVSGQNQQT,2.732 fold
12,GSGGLDTRGQNQQT,6.216 fold
13,GSGQNQQVIQGSNT,8.778 fold
14,GSGQNAHAKEGQQT,0.000 fold
15,GSGFNQRSEQNQQT,4.491 fold
16,GALTVMQSGQNQQT,0.430 fold
17,GSVLHSHAAQNQQT,6.448 fold
18,GQIVQNPSGQNQQT,0.406 fold
19,GSGMPVILGQNQQT,0.150 fold
20,GSGLRTMTTQNQQT,8.939 fold
21,GSGPILGQLQNQQT,2.058 fold
22,GSGDLVVSTQNQQT,1.177 fold

# Same assay, conditions: synthetic library passage 3, intravenous, RNA from brain of NHPs, NGS, relative to wild-type AAV9
row,Sequence,Fold enrichment over AAV9 in the brain of NHPs
1,GSGQKQERAVSKQT,1.277 fold
2,GSLFLATGGQNQQT,1.220 fold
3,GSIQYQSSGQNQQT,1.147 fold
4,GSGQNARLKDNQQT,1.354 fold
5,GSGRHLASVQNQQT,1.187 fold
6,GSGQNQQIISTKIT,1.275 fold
7,GSGQSTLKRINQQT,1.168 fold
8,GSGQASSKSANQQT,1.339 fold
9,GSGQNQQTLRGSLE,1.179 fold
10,GSGQRMADIGNQQT,1.233 fold

# Same assay, conditions: synthetic library passage 3, intravenous, RNA from spinal cord of NHPs, NGS, relative to wild-type AAV9
row,Sequence,Fold enrichment over AAV9 in the spinal cord of NHPs
1,GSGQKQERAVSKQT,0.000 fold
2,GSLFLATGGQNQQT,0.000 fold
3,GSIQYQSSGQNQQT,2.601 fold
4,GSGQNARLKDNQQT,2.395 fold
5,GSGRHLASVQNQQT,1.024 fold
6,GSGQNQQIISTKIT,0.000 fold
7,GSGQSTLKRINQQT,13.442 fold
8,GSGQASSKSANQQT,1.138 fold
9,GSGQNQQTLRGSLE,1.812 fold
10,GSGQRMADIGNQQT,2.539 fold

# Test system: brain
# Assay: NGS fold enrichment of synthetic library (passage 3) in BALB/c mice, first cross-species screen
# Type: in vivo
# Conditions: synthetic library passage 3, intravenous, RNA NGS, brain of BALB/c mice, relative to wild-type AAV9
# In short: as §1
row,Sequence,Fold enrichment over AAV9 in the brain of Mice (BALB/c)
1,GVHDMRVSGQNQQT,0.818 fold
2,GSGQNQQHVSSPRT,0.938 fold
3,GSGERLHLTQNQQT,0.245 fold
4,GSGQNQQTALEKSL,0.702 fold
5,GFAHQASSGQNQQT,1.080 fold
6,GSGQQLSITPNQQT,0.201 fold
7,GSGQSYQRDHNQQT,0.323 fold
8,GSGQTVVRIANQQT,0.390 fold
9,GNSMERTSGQNQQT,0.935 fold
10,GSGQNQYSQSSMQT,0.309 fold
11,GMTSHSVSGQNQQT,0.154 fold
12,GSGGLDTRGQNQQT,0.197 fold
13,GSGQNQQVIQGSNT,0.810 fold
14,GSGQNAHAKEGQQT,1.179 fold
15,GSGFNQRSEQNQQT,0.758 fold
16,GALTVMQSGQNQQT,0.199 fold
17,GSVLHSHAAQNQQT,0.423 fold
18,GQIVQNPSGQNQQT,0.635 fold
19,GSGMPVILGQNQQT,0.287 fold
20,GSGLRTMTTQNQQT,0.594 fold
21,GSGPILGQLQNQQT,0.123 fold
22,GSGDLVVSTQNQQT,0.273 fold

# Same assay, conditions: synthetic library passage 3, intravenous, RNA from brain of BALB/c mice, NGS, relative to wild-type AAV9
row,Sequence,Fold enrichment over AAV9 in the brain of Mice (BALB/c)
1,GSGQKQERAVSKQT,0.732 fold
2,GSLFLATGGQNQQT,0.485 fold
3,GSIQYQSSGQNQQT,1.191 fold
4,GSGQNARLKDNQQT,0.938 fold
5,GSGRHLASVQNQQT,0.606 fold
6,GSGQNQQIISTKIT,0.710 fold
7,GSGQSTLKRINQQT,1.184 fold
8,GSGQASSKSANQQT,0.175 fold
9,GSGQNQQTLRGSLE,0.354 fold
10,GSGQRMADIGNQQT,0.427 fold

# Test system: brain
# Assay: NGS fold enrichment of synthetic library (passage 3) in C57Bl/6 mice, first cross-species screen
# Type: in vivo
# Conditions: synthetic library passage 3, intravenous, RNA NGS, brain of C57Bl/6 mice, relative to wild-type AAV9
# In short: as §1
row,Sequence,Fold enrichment over AAV9 in the brain of Mice (C57Bl/6)
1,GVHDMRVSGQNQQT,1.171 fold
2,GSGQNQQHVSSPRT,1.847 fold
3,GSGERLHLTQNQQT,0.387 fold
4,GSGQNQQTALEKSL,0.625 fold
5,GFAHQASSGQNQQT,1.638 fold
6,GSGQQLSITPNQQT,0.845 fold
7,GSGQSYQRDHNQQT,0.779 fold
8,GSGQTVVRIANQQT,0.661 fold
9,GNSMERTSGQNQQT,1.047 fold
10,GSGQNQYSQSSMQT,0.375 fold
11,GMTSHSVSGQNQQT,0.220 fold
12,GSGGLDTRGQNQQT,0.236 fold
13,GSGQNQQVIQGSNT,0.935 fold
14,GSGQNAHAKEGQQT,0.875 fold
15,GSGFNQRSEQNQQT,1.770 fold
16,GALTVMQSGQNQQT,0.246 fold
17,GSVLHSHAAQNQQT,0.675 fold
18,GQIVQNPSGQNQQT,1.446 fold
19,GSGMPVILGQNQQT,0.840 fold
20,GSGLRTMTTQNQQT,0.838 fold
21,GSGPILGQLQNQQT,0.470 fold
22,GSGDLVVSTQNQQT,0.411 fold

# Same assay, conditions: synthetic library passage 3, intravenous, RNA from brain of C57Bl/6 mice, NGS, relative to wild-type AAV9
row,Sequence,Fold enrichment over AAV9 in the brain of Mice (C57Bl/6)
1,GSGQKQERAVSKQT,1.174 fold
2,GSLFLATGGQNQQT,0.775 fold
3,GSIQYQSSGQNQQT,1.074 fold
4,GSGQNARLKDNQQT,0.580 fold
5,GSGRHLASVQNQQT,0.654 fold
6,GSGQNQQIISTKIT,0.951 fold
7,GSGQSTLKRINQQT,0.534 fold
8,GSGQASSKSANQQT,0.500 fold
9,GSGQNQQTLRGSLE,0.853 fold
10,GSGQRMADIGNQQT,0.352 fold
